Legend:
Test in all cases: relative viability (nuclei count vs DMSO), 5 days (fraction); higher = more cells survive
[1] = compound: COc1ccc(-c2ccc3c(N4CCOC[C@@H]4C)nc(N4CCOC[C@@H]4C)nc3n2)cc1CO [AZD8055]
Summary of the method: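 Viability was read as treated-well nuclei divided by vehicle-well nuclei, using the median across plates. Lung cancer cell lines in 1536-well plates were kept overnight at 37 °C, pinned with five √10-spaced library-drug doses, and after 5 days were Hoechst-stained, imaged at 4× and counted in MetaXpress. Plates passed only with control CV below 25% and at least one doubling.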

[2] = compound: COc1ccc(-c2ccc3c(N4CCOC[C@@H]4C)nc(N4CCOC[C@@H]4C)nc3n2)cc1CO [AZD8055] + N=C(N)NC(=N)NCCc1ccccc1 [Phenformin] (partner 250 µM)
Summary of the method: (§1)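 Cells from lung cancer lines were seeded into 1536-well plates and, one day later, dosed by pin tool. Treatments were either a single drug or a fixed dose of an anchor drug with five library-drug doses (not always all listed) in √10 steps. After 5 days, nuclei were stained in a one-step fixation (final 0.05% Triton X-100, 1% formaldehyde, 1 ug/ml Hoechst) and counted on 4× images, and relative viability is the treated-to-vehicle nuclei ratio, as the median of duplicate plates.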

[3] = compound: COc1ccc(-c2ccc3c(N4CCOC[C@@H]4C)nc(N4CCOC[C@@H]4C)nc3n2)cc1CO [AZD8055] + COc1cccc2cc(-c3nc([C@H]4CC[C@H](C(=O)O)CC4)n4ncnc(N)c34)[nH]c12 [OSI-027] (partner 0.5 µM)
Summary of the method: as §1

[4] = compound: COc1ccc(-c2ccc3c(N4CCOC[C@@H]4C)nc(N4CCOC[C@@H]4C)nc3n2)cc1CO [AZD8055] + CC(=O)Nc1cccc(-n2c(=O)n(C3CC3)c(=O)c3c(Nc4ccc(I)cc4F)n(C)c(=O)c(C)c32)c1 [Trametinib] (partner 0.02 µM)
Summary of the method: as §1

| Cell Line | relative viability ([1]; 0.01 µM) | relative viability ([1]; 0.03162 µM) | relative viability ([1]; 0.1 µM) | relative viability ([1]; 0.3162 µM) | relative viability ([1]; 1 µM) | relative viability ([2]; first compound 0.01 µM) | relative viability ([2]; first compound 0.03162 µM) | relative viability ([2]; first compound 0.1 µM) | relative viability ([2]; first compound 0.3162 µM) | relative viability ([2]; first compound 1 µM) | relative viability ([3]; first compound 0.01 µM) | relative viability ([3]; first compound 0.03162 µM) | relative viability ([3]; first compound 0.1 µM) | relative viability ([3]; first compound 0.3162 µM) | relative viability ([3]; first compound 1 µM) | relative viability ([4]; first compound 0.01 µM) | relative viability ([4]; first compound 0.03162 µM) | relative viability ([4]; first compound 0.1 µM) | relative viability ([4]; first compound 0.3162 µM) | relative viability ([4]; first compound 1 µM) |
| --- | --- | --- | --- | --- | --- | --- | --- | --- | --- | --- | --- | --- | --- | --- | --- | --- | --- | --- | --- | --- |
| LOU-NH91 | 0.931 | 0.934 | 0.724 | 0.633 | 0.624 | 0.678 | 0.711 | 0.532 | 0.49 | 0.455 | 0.775 | 0.797 | 0.66 | 0.569 | 0.556 | 0.765 | 0.74 | 0.64 | 0.564 | 0.587 |
| LU99A | 1.07 | 0.54 | 0.461 | 0.261 | 0.253 | 0.802 | 0.626 | 0.492 | 0.276 | 0.28 | 0.297 | 0.311 | 0.322 | 0.264 | 0.254 | 0.403 | 0.337 | 0.308 | 0.203 | 0.191 |
| LXF-289 | 1.07 | 1.05 | 1.01 | 0.909 | 0.768 | 0.539 | 0.534 | 0.508 | 0.458 | 0.385 | 0.891 | 0.899 | 0.727 | 0.693 | 0.625 | 0.75 | 0.606 | 0.627 | 0.392 | 0.333 |
| NCI-H23 | 1.09 | 0.804 | 0.662 | 0.371 | 0.373 | 0.785 | 0.778 | 0.713 | 0.465 | 0.403 | 0.673 | 0.555 | 0.626 | 0.426 | 0.323 | 0.277 | 0.314 | 0.33 | 0.227 | 0.22 |
| NCI-H322M | 0.933 | 0.968 | 0.741 | 0.64 | 0.601 | 0.726 | 0.704 | 0.662 | 0.501 | 0.502 | 0.56 | 0.602 | 0.582 | 0.476 | 0.431 | 0.522 | 0.467 | 0.486 | 0.481 | 0.398 |
| NCI-H358 | 1.03 | 1.15 | 0.855 | 0.323 | 0.263 | 0.362 | 0.387 | 0.294 | 0.151 | 0.121 | 0.871 | 0.708 | 0.576 | 0.29 | 0.164 | 0.144 | 0.144 | 0.116 | 0.106 | 0.116 |
| NCI-H1299 | 1.04 | 1.06 | 1.04 | 0.807 | 0.415 | – | – | – | – | – | – | – | – | – | – | – | – | – | – | – |
| NCI-H1563 | 0.844 | 0.791 | 0.719 | 0.604 | 0.684 | 0.632 | 0.66 | 0.617 | 0.656 | 0.641 | 0.776 | 0.731 | 0.681 | 0.629 | 0.599 | – | – | – | – | – |
| NCI-H1648 | 0.642 | 0.745 | 0.542 | 0.271 | 0.326 | – | – | – | – | – | 0.27 | 0.235 | 0.289 | 0.234 | 0.296 | 0.396 | 0.446 | 0.342 | 0.316 | 0.209 |
| NCI-H1703 | 0.822 | 0.715 | 0.634 | 0.265 | 0.332 | – | – | – | – | – | – | – | – | – | – | – | – | – | – | – |

Source: the supplement of paper PMC10307832
